Patent US6277886A (priority 1996, dated 2001)
Like-named read-outs stand apart in the source and are kept apart here.

Columns and labels:
WKY rats = conditions: for Change in HR / Change in MBAP: 45-60 min
Description: (§1) A chronic indwelling catheter was implanted in the caudal artery under light anesthesia with averteen. The animals were allowed to recover and were tested 24 hours after implantation. The cathetar was connected to a Statham pressure transducer and blood pressure was recorded on a Grass multichannel Polygraph. During this period, the rat was kept in its home cage in order to minimize handling and undue manipulations known to affect blood pressure.
(§2) Two strains of rats were used: WKY rats and matching SHR (Spontaneously Hypertensive Rats) rats. WKY rats were from a local strain, weighing about 250 g each.
(§3) Blood pressure and heart rate were then monitored for the duration of 45-60 minutes.

[1] = test system: injured mice after closed head injury (CHI); conditions: 1 mg/kg s.c. 15 min after CHI
Description: (§4) The procedure for closed head injury followed was as described for rats in Shohami et al. (J Neurotrauma (1993) 10(2) 109-119) with changes as described.
(§5) Animals: Male Sabra mice (Hebrew University strain) weighing 34-40 g were used. They were housed in groups of 10 per cage, in a 12 hr:12 hr. light:dark cycle. Food and water were provided ad libitium.
(§6) Trauma was induced under anaesthesia. A longitudinal incision was performed in the skin covering the skull and the skin retracted to expose the skull. The head was fixed manually at the lower plane of the impact apparatus. A weight of 333 g was delivered by an electric device from a distance of 3 cm to the left hemisphere, 1-2 mm lateral to the midline in the midcoronal plane.
One point was awarded for the lack of a tested reflex or for the inability to perform the task outline in the Table. The maximal score that can be reached at 1 hour post-CHI is 25 points and at later times, 21 points. The difference in NSS at 1 hr. and at any other time reflects the spontaneous recovery, and is referred to as ΔNSS. A score of 15-19 at 1 hr denotes severe injury, 11-14 denotes moderate injury and less than 10 denotes mild injury.

[2] = test system: pressor response to catecholamines in the cat; experiment: Pressor response to catecholamines in the anesthetized cat before and after S(-)PAI; type: in vivo; conditions: S(-)PAI 1 mg/kg i.v.
Description: Cats were anesthetized with i.v. nembutal 25 mg/kg. Anesthesia was maintained by additional injections of nembutal, 5 mg/kg, as needed. The femoral artery was cannulated and connected to a Statham pressure transducer for blood pressure recordings on a Grass multichannel Polygraph. The femoral vein was cannulated for i.v. injection of drugs.

mice after CHI = conditions: in words
Description: as §4, §5, §6

[3] = test system: SHR (Spontaneously Hypertensive Rats) rats; conditions: for Change in HR / Change in MBAP: 45-60 min
Description: as §1, §2
SHR rats were purchased from Charles River breeders, England. The animals were allowed to acclimatize and recover from the journey and were used at the age of three months, in order to match their WKY controls. SHR hypertension develops gradually from the age of one month to the age of three months. At this stage, blood pressure is already elevated above normotensive levels.
as §3

MAO mediated effects = conditions: Examples 4-9; in words
[4] = test system: reserpine induced ptosis in rats; experiment: Reserpine-induced ptosis in rats; type: in vivo; conditions: for Mean score of reserpine-induced ptosis: reserpine 5 mg/kg i.p., 0-4 scale, 4 = eyes completely open, saline 0.86
Description: Reserpine-induced ptosis and its reversal test. Reserpine causes depletion of catecholamine stores, especially norepinephrine. This effect in the live animal is manifested among other things, in ptosis. Drugs that can prevent or inhibit reserpine-induced ptosis act either directly as noradrenergic agonists, or indirectly by decreasing or preventing the metabolic elimination of endogenous norepinephrine. MAO inhibitors belong to the latter category.

[5] = for Weight: 2 mg/kg/day oral
Description: (§7) Spontaneously hypertensive rats, three month-old, were used. […] Controls received an equivalent volume of tap water. Treatment lasted 14 days. During this period, systolic blood pressure was monitored on days 0, 4, 7 and 11, using a tail-cuff procedure. On day 14, systolic blood pressure was determined using the indwelling catheter procedure described in Example 7.
The rats used in Example 8 above, were additionally monitored for weight gain/loss as an additional marker for the rate of food consumption MAO inhibitors usually elevate central catechoiamines which may depress appetite.

SHR rats = conditions: for Change in Mean Systolic Blood Pressure / Change in Heart rate: 2 mg/kg p.o. daily
Description: as §7

[6] = test system: male Wistar rats after middle cerebral artery occlusion (MCA-O)
Description: In order to expose the left middle cerebral artery, a cut was made in the temporal muscle. The tip of the coronoid process of mandible was excised as well and removed with a fine rongeur. Craniectomy was made with a dental drill at the junction between the median wall and the roof of the inferotemporal fossa.
The dura matter was opened carefully using a 27 gauge needle. […] Following this, the temporalis muscle was sutured and laid over the craniectomy site. The skin was closed with a running 3-0 silk suture. […] The volume of brain tissue incurring damage following ischemia was determined.

MAO-A/MAO-B = conditions: in vitro; in words; cited from earlier work

## C#CCN[C@H]1CCc2ccccc21 [S(-)PAI, S-(-)-N-propargyl-1-aminoindan]
WKY rats; acute oral, in words
  blood pressure and heart rate: no effect on either parameter in either strain of rats
WKY rats; dose 5, oral
  Change in HR: 0 beats/min
  Change in MBAP: 0 mmHg
WKY rats; dose 10, oral
  Change in HR: 0 beats/min
  Change in MBAP: 0 mmHg
WKY rats; dose 20, oral
  Change in HR: 0 beats/min
[1]; saline 4.75 ± 0.17
  Δ NSS, 24 hr post-CHI: 5.06 ± 0.25
[1]; saline 5.83 ± 0.36
  Δ NSS, 7 days post-CHI: 7.19 ± 0.28
[1]; saline 5.96 ± 0.4
  Δ NSS, 14 days post-CHI: 7.88 ± 0.36
[2]; challenge norepinephrine 0.02 μg/kg
  Δ mean arterial pressure after S(-)PAI: 12 mmHg
[2]; challenge norepinephrine 0.05 μg/kg
  Δ mean arterial pressure after S(-)PAI: 32 mmHg
[2]; challenge norepinephrine 0.10 μg/kg
  Δ mean arterial pressure after S(-)PAI: 23 mmHg
[2]; challenge norepinephrine 0.20 μg/kg
  Δ mean arterial pressure after S(-)PAI: 46 mmHg
[2]; challenge phenylephrine 0.20 μg/kg
  Δ mean arterial pressure after S(-)PAI: 2 mmHg
[2]; challenge phenylephrine 0.50 μg/kg
  Δ mean arterial pressure after S(-)PAI: 17 mmHg
[2]; challenge phenylephrine 1.0 μg/kg
  Δ mean arterial pressure after S(-)PAI: 17 mmHg
[2]; challenge phenylephrine 2.0 μg/kg
  Δ mean arterial pressure after S(-)PAI: 42 mmHg
[2]; challenge tyramine 2.0 μg/kg
  Δ mean arterial pressure after S(-)PAI: 3 mmHg
[2]; challenge tyramine 5.0 μg/kg
  Δ mean arterial pressure after S(-)PAI: 9 mmHg
[2]; challenge tyramine 10.0 μg/kg
  Δ mean arterial pressure after S(-)PAI: 28 mmHg
[2]; challenge tyramine 20.0 μg/kg
  Δ mean arterial pressure after S(-)PAI: 39 mmHg
[2]; phenylephrine, tyramine, norepinephrine, in words
  potentiation of the pressor response: no significant potentiation of the pressor response
Mice after CHI; FIG. 1, after CHI
  latency to find the platform, compared to saline treated controls: reduction in latency
Mice after CHI; after CHI
  memory, compared to saline-treated mice: Memory is enhanced
[3]; acute oral, in words
  blood pressure and heart rate: no effect on either parameter in either strain of rats
[3]; dose 1, oral
  Change in HR: -30 beats/min
  Change in MBAP: -16 mmHg
[3]; dose 2, oral
  Change in HR: 0 beats/min
  Change in MBAP: -12 mmHg
[3]; dose 10, oral
  Change in HR: 0 beats/min
  Change in MBAP: 4 mmHg
MAO mediated effects
  effect on several MAO mediated effects: minimal or no effect
[4]; 5 mg/kg i.p.
  Mean score of reserpine-induced ptosis: 1.8
[4]; 10 mg/kg i.p.
  Mean score of reserpine-induced ptosis: 2.5
[4]; 20 mg/kg i.p.
  Mean score of reserpine-induced ptosis: 1.5
[4]; in words
  endogenous norepinephrine concentrations (inferred from ptosis scores): does not cause an increase in endogenous norepinephrine concentrations
[5]; day 0, tap water 317 ± 32.64
  Weight: 294.13 ± 32.06 g
[5]; day 7, tap water 302.22 ± 35.17
  Weight: 292.25 ± 28.47 g
[5]; day 14, tap water 312.89
  Weight: 307.33 ± 24.13 g
[5]; 2 mg/kg/day, 14 days, in words
  body weight: no effect on body weight
SHR rats; day 0, tap water 169.55 ± 7.73
  Change in Mean Systolic Blood Pressure: 166.88 ± 6.11 mmHg
SHR rats; day 0, tap water 374.09 ± 7.17
  Change in Heart rate: 404.13 ± 32.86 beats/min
SHR rats; day 4, tap water 177.82 ± 9.08
  Change in Mean Systolic Blood Pressure: 168.5 ± 12.8 mmHg
SHR rats; day 4, tap water 403 ± 23.3
  Change in Heart rate: 394.5 ± 37.43 beats/min
SHR rats; day 7, tap water 177.67 ± 10.21
  Change in Mean Systolic Blood Pressure: 172.13 ± 14.62 mmHg
SHR rats; day 7, tap water 392.67 ± 24.66
  Change in Heart rate: 394.38 ± 24.47 beats/min
SHR rats; day 11, tap water 178 ± 8.65
  Change in Mean Systolic Blood Pressure: 167.43 ± 14.23 mmHg
SHR rats; day 11, tap water 371.25 ± 27.22
  Change in Heart rate: 408 ± 40.04 beats/min
SHR rats; chronic oral 2 mg/kg/day, in words
  intraindividual and interindividual profile of systolic blood pressure and heart rate: no effect
[6]; in words
  neurological severity score (NSS) and infarct volume versus saline-treated rats: significantly lower
[6]; ip, 2 mg/kg
  Mean NSS ± SEM after 24 hours: 6.5 ± 0.48
MAO-A/MAO-B
  preference for MAO-B or MAO-A: no preference to either substrate
